From patent US7754852B2, “Natriuretic polypeptides” (Mayo Foundation for Medical Education and Research, priority 2007, dated 2010)
Where a SMILES comes first, the peptide text is derived from it. Bridges are numbered along the chain shown (N, C = ends). Where no end group is shown, it is not given here.

Assays:
normal anesthetized dogs [1] = experiment: Cardiorenal function in normal anesthetized dogs, consecutive i.v. infusions of 10, 50 and 100 ng/kg/minute; assay type: in vivo, dog
Method: Cardiorenal function was assessed in three normal anesthetized dogs. […] Tubular Na^+ reabsorption and GFR were assessed by clearance of Li^+ and inulin, respectively. Neurohormones were quantified by radioimmunoassays. Data were analyzed by repeated measures ANOVA followed by Dunnett's test.

normal anesthetized dogs [2] = experiment: Hemoconcentrating effects (hematocrit) of i.v. infusion at 14 pmol/kg/minute in normal anesthetized dogs; assay type: in vivo, dog
Method: Three human NPs (BNP, CNP, URO, and CU-NP were studied to evaluate their effects on vascular permeability as manifested by an increase in hematocrit. Normal anesthetized dogs received i.v. infusions of BNP (n=7), CNP (n=6), URO (n=5), or CU-NP (n=6) at 14 pmol/kg/minute. Blood was collected in EDTA tubes on ice and centrifuged. Data are reported for base-line and at 60 minutes of infusion. In addition to increasing hematocrit (Table 5), CU-NP reduced PCW pressure in vivo (baseline 6±0.9 mmHg, 60 minutes 3±0.9 mmHg; P<0.05). Thus, hemoconcentrating effects of CU-NP may contribute to its cardiac-unloading actions in vivo.

[3] = test system: human aortic endothelial cells (HAEC); experiment: cGMP response in HAEC in the absence or presence of NPR-B antibody; assay type: cell-based; conditions: 10^−6 M, 10 minutes
Method: (§1) cGMP responses to the 3 peptides also were assessed in glomeruli isolated from canine kidneys upon harvest, in the presence or absence of an NPR-A antagonist, […] (1 μM), or an NPR-B antagonist, […] (1 μM), or both antagonists added sequentially (A71915 followed by […], 1 μM final concentration for both). To confirm the involvement of NPR-B in the cGMP response to CU-NP, additional experiments were conducted using human aortic endothelial cells (HAEC). Cyclic GMP response was determined by incubating CU-NP (10^-6 M) for 10 minutes in the absence or presence of an antibody to the ligand-binding domain of NPR-B. In vitro data (mean±SEM) were analyzed by one-way ANOVA followed by Bonferroni's post-test. Statistical significance was defined as P<0.05. GraphPad Prism 4 (GraphPad Software, San Diego, Calif.) was used for statistical analyses.

normal anesthetized dogs [4] = experiment: Renal, cardiovascular and neurohumoral effects of i.v. infusion at 50 ng/kg/minute for 75 minutes in normal anesthetized dogs; assay type: in vivo, dog
Method: CU-NP or CNP polypeptide was intravenously infused into normal anesthetized dogs at 50 ng/kg/minute for 75 minutes. Blood and urine samples were collected pre-infusion (pre-I), at 30 and 60 minutes of infusion, and post-infusion (post-I). Inulin clearance was used for assessment of glomerular filtration rate (GFR). The lithium clearance technique was used for measurement of proximal and distal fractional reabsorption of Na^+ (PFRNa and DFRNa, respectively). Comparisons at the latter three time points versus pre-I were made. Student's t-test was used when comparing results for two time points, whereas repeated measures ANOVA was used to compare four time points.

[5] = test system: isolated canine glomeruli; experiment: cGMP stimulation in isolated canine glomeruli; assay type: cell-based; conditions: 10^−5 M
Method: Experiments were conducted to determine whether CU-NP directly stimulates cGMP in isolated glomeruli, and to compare the cGMP-activating actions of CU-NP with CNP, URO, and CNP-C, which consisted of the full-length 22-AA of CNP with a duplicate of the N-terminus fused in the C-terminal position. Glomeruli were isolated upon harvest of normal canine kidneys. CU-NP, CNP, URO, and CNP-C (10^−5 M) were incubated with glomeruli vs. control. Cyclic GMP was measured by RIA, with correction for protein levels. CU-NP and URO elicited greater cGMP responses than respective controls (P<0.01), but without difference between groups. CU-NP and URO stimulated greater cGMP responses vs. CNP and vs. CNP-C (P<0.001).

normal anesthetized dogs [6] = experiment: In vivo renal perfusion pressure, i.v. infusion at 14.14 pmol/kg/minute for 75 minutes; set-up: species or system dog; conditions: RPP estimated by MAP−RAP
Method: Studies were conducted to determine the in vivo actions of CNP, CU-NP and URO on renal perfusion pressure (RPP, as estimated by MAP-RAP), as RPP is a key determinant of renal function. Given the GFR-enhancing action of CU-NP, in vitro studies also were done to test the hypothesis that CU-NP (unlike CNP) also activates NPR-A, a potent renal acting NP receptor. Equimolar doses of CU-NP, human CNP, or human URO were intravenously infused at 14.14 pmol/kg/minute into 17 normal anesthetized dogs for 75 minutes. RPP was assessed at baseline and at 60 minutes of infusion. Data are expressed as mean±SEM. Clearances were measured from the 16th to the 45th minute and from the 46th to the 75th minute following initiation of peptide infusion. Within each group, 2-tailed paired t-test was used to compare RPP at 60 minutes of peptide infusion vs. baseline. Comparisons between groups were made by two-way ANOVA followed by Bonferroni post-test.

[7] = test system: isolated canine glomeruli; experiment: cGMP response in isolated canine glomeruli with or without NPR-A antagonist and NPR-B antagonist; assay type: cell-based; conditions: 10^−5 M, no antagonist
Method: as §1

[8] = 60 min of i.v. infusion at 14 pmol/kg/minute
[9] = 30 minutes of infusion, 50 ng/kg/minute i.v.
[10] = 60 minutes of infusion, 50 ng/kg/minute i.v.
[11] = 60 minutes of i.v. infusion at 14.14 pmol/kg/minute

## CC[C@H](C)[C@@H]1NC(=O)[C@H](CCCNC(=N)N)NC(=O)[C@H](CC(=O)O)NC(=O)[C@H](CC(C)C)NC(=O)[C@H](CCCCN)NC(=O)[C@H](CC(C)C)NC(=O)CNC(=O)[C@H](Cc2ccccc2)NC(=O)[C@@H](NC(=O)[C@H](CO)NC(=O)[C@H](CO)NC(=O)[C@H](CCCNC(=N)N)NC(=O)[C@H](CCCNC(=N)N)NC(=O)[C@H](CC(C)C)NC(=O)[C@H](CO)NC(=O)[C@H](CCCNC(=N)N)NC(=O)[C@@H]2CCCN2C(=O)[C@H](C)NC(=O)[C@@H](N)[C@@H](C)O)CSSC[C@@H](C(=O)N[C@@H](CC(N)=O)C(=O)N[C@@H](CO)C(=O)N[C@@H](Cc2ccccc2)C(=O)N[C@@H](CCCNC(=N)N)C(=O)N[C@@H](Cc2ccc(O)cc2)C(=O)O)NC(=O)CNC(=O)[C@H](CC(C)C)NC(=O)CNC(=O)[C@H](CO)NC(=O)[C@H](CCSC)NC(=O)[C@H](CO)NC(=O)CNC1=O [CU-NP] (H-TAPRSLRRSSCFGLKLDRIGSMSGLGCNSFRY-OH; disulfide 11-27)
Normal anesthetized dogs [1]; end of infusion at 100 ng/kg/minute
  QTc interval: 329 ± 15 ms
Normal anesthetized dogs [1]; pre-infusion
  QTc interval: 323 ± 6 ms

## BNP: human NP (natriuretic peptide) BNP
Normal anesthetized dogs [2]; [8]
  Hematocrit (mean ± SEM): 40 ± 2 %
Normal anesthetized dogs [2]; Baseline
  Hematocrit (mean ± SEM): 36 ± 1%

## CNP: human CNP, mature natriuretic polypeptide of 22 amino acids
[3]; in the presence of the NPR-B antibody (1:100)
  cGMP: 0.08 ± 0.01 pmol/mL
[3]; no antibody
  cGMP: 0.17 ± 0.04 pmol/mL
Normal anesthetized dogs [4]; [9]
  DFRNa+: 98 ± 0.8%
  GFR: 42 ± 4 mL/min
  Na^+ excretion: 56 ± 21 μEq/min
  PFRNa+: 67 ± 3%
  Plasma cGMP: 11 ± 1 pmol/mL
  Renal generation of cGMP: 452 ± 202 pmol/min
  Urinary cGMP excretion: 1119 ± 102 pmol/min
  Urine flow: 0.3 ± 0.06 mL/min
Normal anesthetized dogs [4]; [10]
  DFRNa+: 98 ± 0.5%
  GFR: 39 ± 3 mL/min
  Na^+ excretion: 71 ± 8 μEq/min
  PFRNa+: 51 ± 7 %
  Plasma cGMP: 12 ± 1 pmol/mL
  Renal generation of cGMP: 603 ± 199 pmol/min
  Urinary cGMP excretion: 1338 ± 81 pmol/min
  Urine flow: 0.4 ± 0.02 mL/min
Normal anesthetized dogs [4]; post-infusion
  DFRNa+: 99 ± 0.2%
  GFR: 44 ± 3 mL/min
  Na^+ excretion: 30 ± 8 μEq/min
  PFRNa+: 68 ± 3 %
  Plasma cGMP: 12 ± 1 pmol/mL
  Renal generation of cGMP: 582 ± 91 pmol/min
  Urinary cGMP excretion: 1090 ± 76 pmol/min
  Urine flow: 0.3 ± 0.04 mL/min
Normal anesthetized dogs [4]; pre-infusion
  DFRNa+: 99 ± 0.5%
  GFR: 38 ± 4 mL/min
  Na^+ excretion: 16 ± 6 μEq/min
  PFRNa+: 83 ± 3%
  Plasma cGMP: 8 ± 1 pmol/mL
  Renal generation of cGMP: 491 ± 65 pmol/min
  Urinary cGMP excretion: 830 ± 74 pmol/min
  Urine flow: 0.1 ± 0.02 mL/min
Normal anesthetized dogs [2]; [8]
  Hematocrit (mean ± SEM): 37 ± 1%
Normal anesthetized dogs [2]; Baseline
  Hematocrit (mean ± SEM): 36 ± 1%
[5]
  cGMP (mean ± SEM): 0.0019 ± 0.0005 fmol/µg
Normal anesthetized dogs [6]; [11]
  RPP (mean ± SEM): 123 ± 8 mmHg
Normal anesthetized dogs [6]; Pre-I
  RPP (mean ± SEM): 120 ± 4 mmHg

## URO: human urodilatin, natriuretic polypeptide (TAPRSLRRSSCFGGRMDRIGAQSGLGCNSFRY; ends and bridges not checked; cysteine pairing not given here; UniProt P01160 120-151, looked up)
[7]
  cGMP: 0.54 ± 0.10 fmol/µg
Normal anesthetized dogs [2]; [8]
  Hematocrit (mean ± SEM): 40 ± 1 %
Normal anesthetized dogs [2]; Baseline
  Hematocrit (mean ± SEM): 37 ± 1%
[5]
  cGMP (mean ± SEM): 0.69 ± 0.07 fmol/µg
Normal anesthetized dogs [6]; [11]
  RPP (mean ± SEM): 119 ± 4 mmHg
Normal anesthetized dogs [6]; Pre-I
  RPP (mean ± SEM): 127 ± 4 mmHg
